# Reference: patent US7560474B2, “Derivatives of pyridilethanol (phenylethyl) amines as inhibitors of cholesterol biosynthesis, process for their preparation and pharmaceutical compositions containing them” (Lek Pharmaceuticals d.d., priority 2002, dated 2009)
# “Also recorded” adds a separate entry of the source. Where a name gives a salt, the structure may show the parent alone.
# Tests used:
# [1] = test system: cholesterol biosynthesis in immortal human hepatocyte cell line HepG2; assay: Metabolic labeling of immortal human hepatocytes (HepG2) with [3H] acetate, HPLC sterol analysis; format: cell-based; settings: 100 μM inhibitor, HepG2 cells, [3H] acetate labeling, radiodetector HPLC; for quantity of radiolabelled cholesterol synthesized (inhibition of cholesterol biosynthesis): FIG. 3
# Procedure: In accordance with the invention goal, the effect of the novel derivatives of pyridylethanol (phenylethyl) amine as ligands of sigma receptors on inhibition of cholesterol biosynthesis was assessed. An ex vivo method of metabolic labeling of immortal human hepatocytes was employed. The radioactively labelled early precursor of cholesterol [^3H] acetate was added to cells with or without addition of sigma ligands. Two independent experiments of metabolic labeling and sterol analysis were performed. […] The inhibitory effect on cholesterol biosynthesis of our novel ligands of sigma receptors BK-31.2 HBr, BK-33.2HBr, BK-35.2HBr and BK-38.2HBr), prepared according to examples 1 to 4, was evaluated. An ex vivo method of metabolic labeling of immortal human hepatocytes was applied. The radiolabel led precursor of cholesterol biosynthesis [^3H] acetate was added to the cells with or without the addition of sigma ligands. Finally, two independent experiments of metabolic labeling and sterol analysis were performed for each compound. The immortal human hepatocyte cell line HepG2 was split to the 75 cm^2 flasks in the ratio 1:2, two flasks for each condition. The cells were cultured in the DMEM culture ([…] 0.0626 […] 0.042 […]-thryptophan 0.016 g/l, L-[…]Na.2H2O 0.10379 […], choline chloride 0.004 g/l, folic acid 0.004 g/l, myo-inositol 0.0072 g/l, niacinamide 0.004 g/l, D-pantothenic acid 0.004 g/l, pyridoxal.HCl 0.004 g/l, riboflavin 0.0004 g/l, thiamine.HCl 0.004 g/l, calcium chloride.2H2O 0.265 g/l, ferric nitrate.9H2O 0.0001 g/l, magnesium sulfate [anhydride] 0.09767 g/l, potassium chloride 0.4 g/l, sodium chloride 6.4 g/l, monobasic sodium phosphate [anhydride] 0.109 g/l, glucose 4.5 g/l and phenol red, Na 0.0159 g/l) with 5% bovine serum and 1% L-glutamine. After 24 hours a medium with 100 μM ligands of sigma receptors (BK-31.2HBr, BK-33.2HBr, BK-35.2HBr and BK-38.2HBr) was added to the cells. The known inhibitors of cholesterol biosynthesis, 100 μM lovastatin or pravastatin, both the inhibitors of HMG-CoA reductase, and 100 μM fluconazole that inhibits enzymes of the P450 family to which lanosterol 14α-[…] (CYP51) also belongs, were used as positive controls. The cells grown in normal media without the addition of inhibitors served as negative control. The medium was exchanged after 24 hours. After 48 hours, 40 μCi [^3H] acetate was added per 1 ml of the medium (400 μCi per flask). The medium was aspirated after 24 hours, and the cells were tryptinized with 2 ml of trypsine. The cells were collected in 4 ml of the medium, centrifuged, and the cell pellet resuspended in distilled water (1 ml per flask). The cells were homogenized by freeze-thawing. Sterols were extracted from the homogenate. Protein concentration was determined in the homogenate with the Bio-rad reagent according to the recommended protocol of the producer. The homogenate was transferred into glass vials with an inert cover. 3 ml of the extraction solution (75% n-heptane:25% isopropanol (vol/vol)) was added. The closed vials were shaken vigorously on a shaker in the dark room for 2 hours. […] Until analysis, the samples were stored in the HPLC-grade solvent in dark and cold. The dried extracts were dissolved in 250 μl n-heptane. 100 μl aliquots were injected into the normal phase column (ChromSpher Si, 150 mm×3 mm, particle size 5 μm) with the mobile phase 99.5% n-heptane:0.5% isopropanol at flow rate 1 ml/min and room temperature. […] For determination of sterol after metabolic labeling, a radiodetector with the flow-through cell was used. […] G. Byskov, Rikhospitalitet, University of Copenhagen). The results were normalized according to the quantity of internal standard ergosterol and the concentration of proteins in the homogenate. The results represent the average value of two measurements with appropriate standard deviation.
Structure (SMILES),quantity of radiolabelled cholesterol synthesized (inhibition of cholesterol biosynthesis) [1],also measured
"CCCN(CCc1ccccc1)CC(O)c1cccnc1 (stereo not drawn) (as salt: hydrobromid) [BK-31.2HBr, 1-(3-pyridyl)-2-(N-(2-phenylethyl)-N-propylamino)ethanol dihydrobromide]",,melting point: 113 to 120 °C
"CN(CCc1ccc(Cl)c(Cl)c1)CC(O)c1cccnc1 (stereo not drawn) [BK-33.2HBr, 1-(3-pyridyl)-2-(N-(2-(3,4-dichlorophenyl)ethyl)-N-methylamino)ethanol dihydrobromide]",significantly lowered amounts of cholesterol,
"CCCN(CCc1ccccc1)CC(O)c1cccnc1 (stereo not drawn) [BK-31.2HBr, 1-(3-pyridyl)-2-(N-(2-phenylethyl)-N-propylamino)ethanol dihydrobromide]",significantly lowered amounts of cholesterol,
"CN(CCc1ccc(Cl)c(Cl)c1)CC(O)c1ccncc1 (stereo not drawn) [BK-38.2HBr, 1-(4-pyridyl)-2-(N-(2-(3,4-dichlorophenyl)ethyl)-N-methylamino)ethanol dihydrobromide]",significantly lowered amounts of cholesterol,
"CC[C@H](C)C(=O)O[C@H]1C[C@@H](C)C=C2C=C[C@H](C)[C@H](CC[C@@H]3C[C@@H](O)CC(=O)O3)[C@H]21 [Lovastatin, lovastatin, reference compound]",completely blocked the biosynthesis,
"OC(Cn1cncn1)(Cn1cncn1)c1ccc(F)cc1F [Fluconazole, fluconazole, reference compound]",weaker inhibitor of cholesterol biosynthesis,
"CCCN(CCc1ccc(Cl)c(Cl)c1)CC(O)c1cccnc1 (stereo not drawn) [BK-35.2HBr, 1-(3-pyridyl)-2-(N-(2-(3,4-dichlorophenyl)ethyl)-N-propylamino)ethanol dihydrobromide]",,"quantity of radiolabelled cholesterol synthesized (inhibition of cholesterol biosynthesis) ([1]; dihydrobromide): most pronounced; also recorded: cholesterol quantity is diminished; also recorded: significantly lowered amounts of cholesterol; also recorded: greatest lowering of cholesterol; quantity of radiolabelled cholesterol synthesized (inhibition of cholesterol biosynthesis) ([1]; listed as BK 35.2HBr, dihydrobromide): highest potential to inhibit cholesterol biosynthesis; amount of intermediate sterols representing lanosterol or T-MAS (accumulation of early postsqualene intermediates) ([1]; FIG. 4, dihydrobromide): ten-fold increase; also recorded: increased"
